Reference: US8349805B2, “Use of Gonadorelin as a therapeutic agent” (priority 2007, dated 2013)
Ends that are not written are not given here.

Tests used:
[1] = tested on: Primary Human endothelial cells (HUVEC); assay: Endothelial cell migration assay; format: cell-based; conditions: 10 micrograms per ml, 22 hours
Experimental: Thereafter, designated concentration of testing peptides—10 micrograms per ml—was added in duplicate wells.

A549 cells = assay: Apoptosis prevention assay (C2 ceramide, Annexin-5); format: cell-based, human; conditions: 10 micrograms per ml, 30 min pretreatment, combination 0.95:1.05 mole
murine spleen cells = assay: Th1/Th2 cytokine profiling assay; format: cell-based, Balb/c mice; conditions: 10 micrograms per ml; Ovalbumin-restimulated murine spleen cells, 72 hours
Excerpt: The Balb/c mice (originated in 1923, it is a popular strain and is used in many different research disciplines. Also classified as an inbred from the production of 20 or more successive brother-sister matings, the Balb/c mouse is albino and small in size) were immunized on Days 1, 15, and 29 with Ovalbumin (Ovalbumin is the main protein found in egg white, commonly used to stimulate an immunological reaction in test animals) in PBS (5 micrograms/injection). On day 50, spleens of the mice were harvested (3 weeks after last boost with Ovalbumin). Cells were cultured (2×10^5/well in triplicate) and incubated with culture medium or test peptides—10 micrograms per ml—for 30 min. Thereafter, additional Ovalbumin was added to the cells at 10 micrograms/ml for in vitro restimulation of the cells. 72 hours later, cell supernatants were harvested and assayed using the Becton Dickinson Mouse Th1/Th2 Cytokine CBA Kit.

HUVEC = assay: Endothelial tube formation assay; format: cell-based, human; conditions: 10 micrograms per ml, 20 hours, combination 1.10 mole:0.90 mole
Excerpt: Positive control was vehicle only.

[2] = tested on: hepatitis B virus (HBV) ayw strain; assay: HBV replication assay in HepG2-2.2.15 cells (TaqMan PCR of secreted HBV DNA); format: cell-based; conditions: 10 micrograms per ml; HepG2-2.2.15, 6 days; combination 0.95 mole peptide 1 and 1.05 mole peptide 2
HCMV strain AD169 = assay: HCMV plaque formation assay in MRC-5 cells; conditions: 10 micrograms per ml, 7-10 days

Compound	inhibition of the migration of human endothelial cells ([1]; combination 1.10 mole:0.90 mole) [%]	reduction of the ceramide-induced apoptosis on human lung cells (A549 cells)	change of the production of TNF-alpha (murine spleen cells)	production of IFN-γ (decreased by %) (murine spleen cells)	production of IL-2 (induced by %) (murine spleen cells)	production of IL-4 (decreased by %) (murine spleen cells)	production of IL-5 (decreased by %) (murine spleen cells) [%]	inhibition of the tube formation of human endothelial cells (HUVEC) [%]	inhibition of HBV replication as compared to the virus control infection [2]	inhibition of HCMV plaque formation as compared to the virus control (HCMV strain AD169)	increase of the migration of endothelial cells [1] [%]
CC(C)C[C@H](NC(=O)CNC(=O)[C@H](Cc1ccc(O)cc1)NC(=O)[C@H](CO)NC(=O)[C@H](Cc1c[nH]c2ccccc12)NC(=O)[C@H](Cc1cnc[nH]1)NC(=O)[C@@H]1CCC(=O)N1)C(=O)N[C@@H](CCCNC(=N)N)C(=O)N1CCC[C@H]1C(=O)NCC(N)=O [Peptide 1]	39	27.05%	did not significantly change	did not significantly change	43.6%	65.9%	44.1	6	30.4%	did not inhibit	
Met-Gln-Met-Lys-Lys-Val-Leu-Asp-Ser-OH (MQMKKVLDS-OH) [Peptide 2]		did not reduce	did not significantly change	27.5%	did not significantly change	did not significantly change	38.8	4	no effect	did not inhibit	16
